Where no end group is shown, it is not given here.
Legend:
[1] = test system: L. mexicana amastigotes; conditions: cited from earlier work
Description: Temporin-SHe represents an additional temporin with antiparasitic properties. This peptide was able to kill promastigote forms of the human parasite Leishmania, responsible for visceral (L. infantum), cutaneous (L. major) and muco-cutaneous (L. braziliensis) leishmaniasis. […] Until today, only six temporins (Ta, Tb, SHa, SHd, Tl and Tf) have been described as antiparasitic peptides and very few AMPs of other families are active against parasites (The Antimicrobial Peptide ...

[2] = test system: Candida species (C. albicans and C. glabrata); design: method as in PMID 28402481; conditions: cited from earlier work
[3] = test system: Nocardia asteroides; design: method as in 2 sources, ref 48 = [48]; PMID 28402481; doi:10.1093/abbs/gmx032; 48. Wang X. Ren S. Guo C. Zhang W. Zhang X. Zhang B. Li S. Ren J. Hu Y. Wang H. Identification and functional analyses of novel antioxidant peptides and antimicrobial peptides from skin secretions of ||| ref 49 = [49]; PMID 25066917; doi:10.1016/j.biochi.2014.07.013; 49. Guo C. Hu Y. Li J. Liu Y. Li S. Yan K. Wang X. Liu J. Wang H. Identification of multiple peptides with antioxidant and antimicrobial activities from skin and its secretions of Hylarana taipehensis; conditions: cited from earlier work
[4] = test system: E. faecalis; design: method as in 2 sources, ref 48 = [48]; PMID 28402481; doi:10.1093/abbs/gmx032; 48. Wang X. Ren S. Guo C. Zhang W. Zhang X. Zhang B. Li S. Ren J. Hu Y. Wang H. Identification and functional analyses of novel antioxidant peptides and antimicrobial peptides from skin secretions of ||| ref 49 = [49]; PMID 25066917; doi:10.1016/j.biochi.2014.07.013; 49. Guo C. Hu Y. Li J. Liu Y. Li S. Yan K. Wang X. Liu J. Wang H. Identification of multiple peptides with antioxidant and antimicrobial activities from skin and its secretions of Hylarana taipehensis; conditions: cited from earlier work
[5] = test system: Gram-negative bacteria (E. coli, P. aeruginosa, and K. pneumoniae); design: method as in PMID 28402481; conditions: cited from earlier work
[6] = test system: S. aureus; design: method as in 3 sources, one per row (each row's own in cited_ref): ref 46 = [46]; PMID 14499272; doi:10.1016/S0196-9781(03)00193-1; 46. Ali M.F. Knoop F.C. Vaudry H. Conlon J.M. Characterization of novel antimicrobial peptides from the skins of frogs of the Rana esculenta complex Peptides 2003 24 955 961 10.1016/S0196-9781(03)0019 ||| ref 48 = [48]; PMID 28402481; doi:10.1093/abbs/gmx032; 48. Wang X. Ren S. Guo C. Zhang W. Zhang X. Zhang B. Li S. Ren J. Hu Y. Wang H. Identification and functional analyses of novel antioxidant peptides and antimicrobial peptides from skin secretions of ||| ref 49 = [49]; PMID 25066917; doi:10.1016/j.biochi.2014.07.013; 49. Guo C. Hu Y. Li J. Liu Y. Li S. Yan K. Wang X. Liu J. Wang H. Identification of multiple peptides with antioxidant and antimicrobial activities from skin and its secretions of Hylarana taipehensis; conditions: cited from earlier work
[7] = test system: E. coli; design: method as in PMID 14499272; conditions: cited from earlier work
[8] = test system: human THP-1 monocytes; conditions: taken from literature; cited from earlier work
[9] = test system: L. ivanovii (Li4pVS2); conditions: liquid growth inhibition (CLSI), 10^6 CFU/mL in brain heart infusion (BHI) medium, 37 °C, 18–20 h, OD 630 nm; mean of three independent experiments in triplicate
Procedure: Antibacterial activity of temporin-SHe was evaluated against Gram-positive bacteria including S. aureus strains (ATCC 25923, ST1065), antibiotic-resistant S. aureus strains (ATCC 43300, ATCC BAA-44), E. faecalis (ATCC 29212), B. megaterium, and L. ivanovii (Li4pVS2), and Gram-negative bacteria including E. coli strains (ATCC 25922, ATCC 35218, ML-35p), S. enterica (serotype Enteritidis), P. aeruginosa (ATCC 27853), A. baumannii (ATCC 19606) and K. pneumoniae (ATCC 13883). Antifungal activity was evaluated against C. albicans (ATCC 90028), C. parapsilosis (ATCC 22019) and S. cerevisiae. ATCC strains were purchased from American-Type Culture Collection (ATCC, Virginia, VA, USA). Antiparasitic activity was determined against promastigotes of several species of Leishmania responsible for visceral, cutaneous and mucocutaneous leishmaniases: L. infantum (strain MHOM/MA/67/ITMAP-263), L. major (strain MHOM/SU/73/5-ASKH), and L. braziliensis (strain MHOM/BR/75/M2904), respectively. Cytotoxicity was assessed against human red blood cells and THP-1 monocytes. Peripheral blood was obtained from healthy adult donors (Établissement Français du Sang, Paris, France). All donors signed informed consent allowing the use of their blood for research purposes.
Antimicrobial activity was assessed with a liquid growth inhibition assay performed according to a previously described protocol using the Clinical and Laboratory Standards Institute (CLSI) guidelines. Briefly, in 96-well microtitration plates, mid-log-phase bacteria diluted to 10^6 CFU/mL in Mueller–Hinton (MH) broth were added to different concentrations of synthetic temporin-SHe (1–200 µM, final concentrations) and incubated at 37 °C for 18–20 h, under shaking (150 rpm). For E. faecalis, L. ivanovii and yeasts/fungi, 10^6 CFU/mL suspensions were prepared in LB broth, brain heart infusion (BHI) medium and Yeast Peptone Dextrose (YPD) medium, respectively, and incubation was performed at 30 °C for yeasts/fungi. […] MIC values represent the average of three independent experiments, each performed in triplicate with negative (no peptide) and positive (formaldehyde 0.7%) controls.

Substance	MIC [3] [µM]	MIC [4] [µM]	MIC [6] [µM]	other results
FLSGIVGMLGKLF-NH2 [Temporin-SHa, 13-residue temporin-SH from Pelophylax saharicus]	–	–	–	less efficiency against L. mexicana amastigotes (compared with promastigotes) [1]: approximately 10 fold
FLPFLAGLFGKIF-NH2 [Temporin-HB2, temporin isolated from the Hubei Frog Pelophylax hubeiensis]	75	19	150	activity against Candida species [2]: No activity; activity against Gram-negative bacteria [5]: No activity
FLPVIAGLLSKLF-NH2 [Temporin-1Ec, temporin isolated from Pelophylax lessonae/ridibundus]	–	–	8	MIC [7]: > 100 µM
FLPAALAGIGGILGKLF-NH2 [Temporin-SHd, reference compound]	–	–	–	LC50 (lethal concentration 50) [8]: 66 µM; MIC [9]: 10 µM
FLPLLFGALSTLLPKIF-NH2 [Temporin-TP3, temporin isolated from skin secretions of Hylarana taipehensis]	12.5	50	25	–
